Test results published in patent EP0714662A1, “ANTIALLERGIC AGENT” (MEIJI MILK PRODUCTS COMPANY LIMITED, priority 1993, dated 1995).
Ends that are not written are not given here. Peptide text beside a SMILES is read from it.

test system: serum IgE of cryptomeria pollinosis patients; assay: Enzyme antibody assay: binding of solid phase Cry j II overlapping peptides to patients' serum IgE; set-up: species or system human; settings: not given
Source text: Presently, however, the C-terminal amino acids are unknown. Therefore, overlapping peptides were synthesized on a solid phase using an Fmoc-amino acid and multipin system (manufactured by Chiron) so as to cover all the proteins consisting of 460 amino acid residues (Sequence No. 1) other than the N-terminal moiety. The first peptide comprises the first through ninth amino acids in the N-terminal moiety of a Cry j II protein. The second peptide comprises the third through eleventh amino acids in the N-terminal moiety.
Subsequently, using a washing solution of 0.05% Tween 20/0.15 M NaCl/Tris-HCl (pH 7.5), synthesized solid phase peptides were washed three times to remove the patient's serum. Using a 1:9 diluted Block-ace (product of Dainippon Seiyaku K.K.), 100 µl of galactosidase-labelled anti-human IgE antibodies (Pharmacia) were diluted to 40-fold. The diluted solution was added to a 96-well plate, and then each synthesized solid phase peptide was also added. Reaction was allowed to proceed overnight at room temperature. The synthesized solid phase peptide was washed with the same washing solution five times. Thereafter, 200 µl of a solution of 0.1 mM 4-methylumbelliferyl-β-D-galactopyranoside in 0.1% bovine serum albumin/0.1 M NaCl/1 mM MgCl₂/0.1% sodium azide/10 mM phosphate buffer (pH 7.0) were added to a 96-well black plate (manufactured by Dainippon Seiyaku K.K.). Subsequently, the synthesized solid phase peptide was added and reacted for 2 hours at 37°C.

Molecule | reaction with serum IgE of cryptomeria pollinosis patients
C[C@H](NC(=O)[C@H](CO)NC(=O)[C@H](C)NC(=O)[C@H](CO)NC(=O)[C@@H](NC(=O)[C@@H](N)CS)[C@@H](C)O)C(=O)N[C@@H](CS)C(=O)N[C@@H](CCC(N)=O)C(=O)N[C@@H](CC(N)=O)C(=O)O [Cys-Thr-Ser-Ala-Ser-Ala-Cys-Gln-Asn] (H-CTSASACQN-OH) | reacted serum IgE of cryptomeria pollinosis patients
C[C@@H](O)[C@H](NC(=O)[C@H](CS)NC(=O)[C@H](CC(N)=O)NC(=O)[C@@H]1CCCN1)C(=O)N[C@@H](CC(N)=O)C(=O)N[C@@H](CCCCN)C(=O)N[C@@H](CS)C(=O)N[C@@H](Cc1c[nH]cn1)C(=O)NCC(=O)O [Pro-Asn-Cys-Thr-Asn-Lys-Cys-His-Gly] (H-PNCTNKCHG-OH) | reacted serum IgE of cryptomeria pollinosis patients
KWVNGREIC [Lys-Trp-Val-Asn-Gly-Arg-Glu-Ile-Cys] | reacted serum IgE of cryptomeria pollinosis patients
NLFFNGPCQ [Asn-Leu-Phe-Phe-Asn-Gly-Pro-Cys-Gln] | reacted serum IgE of cryptomeria pollinosis patients
QCKWVNGRE | reacted serum IgE of cryptomeria pollinosis patients
SASACQNQR [Ser-Ala-Ser-Ala-Cys-Gln-Asn-Gln-Arg] | reacted serum IgE of cryptomeria pollinosis patients

test system: basophils of a patient; assay: Histamine release inhibition test with peptide D, blood of egg allergy patients; type: cell-based, human; settings: peptide D 1.4 mg/ml
Description: The histamine release inhibition test was performed using a histamine kit "Eiken" manufactured by Eiken Kagaku K.K. Briefly, heparinized peripheral blood was collected from each patient, and the blood was diluted to a 1:1 ratio using a buffer for release tests. Equivalent amounts of a diluted peptide D (which had been diluted to double the density of an inhibitory concentration using a buffer for release tests) and a diluted blood from a patient (which had been diluted to a 1:1 ratio) were mixed and allowed to react overnight at 4°C. Subsequently, fifty µl of peptide B or OVA diluted with a buffer for release was mixed with 100 µl of the patient's blood with which peptide D was reacted. […] After the histamine tubes were incubated for 16 to 24 hours, the solution was drawn off using an aspirator, and measured using a gamma scintillation counter. The amount of total histamine was determined using a supernatant sample obtained by adding 1 ml of purified water to 50 µl of whole blood, freezing and thawing, then centrifugally separating. […] The ratio of the difference with respect to the total amount of histamine was calculated and taken as a histamine release ratio. Inhibition ratio (%) was calculated by the following equation: %Inhibition = {1-(histamine release ratio in the presence of an inhibitory peptide)/(histamine release ratio in the absence of an inhibitory peptide)} x 100 [formula] […]

Molecule | suppression ratio of histamine release caused by untreated OVA [%]
EFRADHPFLF [peptide D] | 93

same assay, conditions: peptide D at a concentration of not less than 1.4 mg/ml

Molecule | suppression of histamine release caused by stimulant peptide B
EFRADHPFLF [peptide D] | at least 85%

test system: serum IgE from 15 patients suffering from mite rhinallergosis; assay: Enzyme antibody assay: binding of solid phase Der p II overlapping peptides to patients' serum IgE; set-up: species or system human; settings: serum from each of 15 patients
Description: The complete primary structure of the amino acid sequence of a Der p II protein was determined after cDNA was isolated therefrom by Chua et al. (Int. Arch. Allergy Appl. Immunol. 91: 118-123, 1990). Based on the amino acid sequence, peptides were synthesized on a solid phase using a multipin system (manufactured by Chiron) and coupling reagents, Fmoc-amino acid and DCC (dicyclohexyl carbodiimide) (Geysen, H.M. et al., Proc. Natl. Acad. Sci. USA. 81:3998-4002, 1984). Sixty-one kinds of peptides were synthesized, the first peptide comprising the first through ninth amino acids of the N-terminal of Der p II, the second peptide comprising the third through eleventh amino acids of the N-terminal, and the third through 61st peptides being prepared in an analogous manner.
The RAST (radio-allergosorbent test, Pharmacia) values as determined using antigens from two mite species, Dermatophagoides pteronyssinus (Der p) and Dermatophagoides farina (D f), were class 4. Each of the above-mentioned 61 synthesized peptides and 100 µl of each patient's serum were placed in a 96-well plate and reacted overnight at room temperature. Synthesized peptides in a solid phase were washed three times to remove the patient's serum using a washing solution of 0.05% Tween 20/0.15 M NaCl/Tris-HCl (pH 7.5). 100 µl of galactosidase-labelled anti-human IgE antibodies (Pharmacia) were diluted to 40-fold using a 1:9 diluted Block-ace (product of Dainippon Seiyaku K.K.). The diluted solution was added to a 96-well plate, each synthesized solid phase peptide was also added, and reaction, was allowed to proceed overnight at room temperature. The synthesized solid phase peptide was washed with the same washing solution five times. Thereafter, to a 96-well black plate (manufactured by Dainippon Seiyaku K.K.), were added 200 µl of a solution of 0.1 mM 4-methylumbelliferyl-β-D-galactopyranoside in 0.1% bovine serum albumin/0.1 M NaCl/1 mM MgCl₂/0.1% sodium azide/10 mM phosphate buffer (pH 7.0). Subsequently, the synthesized solid phase peptide was added and reacted for 2 hours at 37°C. After completion of reaction, 100 µl of a reaction terminating solution (0.1 M glycin/NaOH, pH 10.3) were added to each well, and absorbance was measured using a fluorospectrophotometer for 96-well plates (Manufactured by Flow). This reaction was studied for each of 15 patients.

Molecule | binding reactions with IgE antibodies
ANQNTKTAK [synthesized peptide No. 22] | exhibited binding reactions with IgE antibodies
FQLEAVFEA [synthesized peptide No. 18] | exhibited binding reactions with IgE antibodies
IATHAKIRD [synthesized peptide No. 61] | exhibited binding reactions with IgE antibodies
KCPLVKGQQ [synthesized peptide No. 39] | exhibited binding reactions with IgE antibodies
KIEIKASID [synthesized peptide No. 26] | exhibited binding reactions with IgE antibodies
NVPKIAPKS [synthesized peptide No. 47] | exhibited binding reactions with IgE antibodies
PKSENVVVT [synthesized peptide No. 50] | exhibited binding reactions with IgE antibodies
SENVVVTVK [synthesized peptide No. 51] | exhibited binding reactions with IgE antibodies
SIDGLEVDV [synthesized peptide No. 29] | exhibited binding reactions with IgE antibodies
VVTVKVMGD [synthesized peptide No. 53] | exhibited binding reactions with IgE antibodies
